Experimental data: PubChem BioAssay AID200 (DTP/NCI, 2004)
Several values for one entry are separate records, joined by “and”; a condition that tells them apart may be missing. Identical values can stand only once. Toxic doses and inconclusive results are not listed.

Test system: B6C3F1 mice, B16 melanoma ip, median survival T/C
Assay: NCI In Vivo Anticancer Drug Screen. Data for tumor model B16 Melanoma (intraperitoneal) in B6C3F1 mice
Details: endpoint: median survival time, higher = longer survival
Method in brief: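 Mice bearing transplanted tumor were dosed with compound or vehicle, and survival was recorded. Activity is expressed as the treated-group measurement (T) divided by the vehicle control measurement (C).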

[1] = dose: 50.0 mg/kg/injection, schedule: Q01DX009 (ip), vehicle: Klucel (hydroxypropylcellulose) (HPC)
[2] = dose: 100.0 mg/kg/injection, schedule: Q01DX009 (ip), vehicle: Klucel (hydroxypropylcellulose) (HPC)

CC(=O)c1ccc([NH-])c([NH-])c1.[Cl][Pt+2][Cl]
T/C (dose: 2.5 mg/kg/injection, schedule: Q01DX009 (ip), vehicle: distilled water + Tween-80): 116 % of control
T/C (dose: 5.0 mg/kg/injection, schedule: Q01DX009 (ip), vehicle: distilled water + Tween-80): 116 % of control
T/C (dose: 10.0 mg/kg/injection, schedule: Q01DX009 (ip), vehicle: distilled water + Tween-80): 114 % of control and 124 % of control
T/C (dose: 20.0 mg/kg/injection, schedule: Q01DX009 (ip), vehicle: distilled water + Tween-80): 114 % of control
T/C (dose: 40.0 mg/kg/injection, schedule: Q01DX009 (ip), vehicle: distilled water + Tween-80): 119 % of control

CCC1CC2CN(CCc3c([nH]c4ccccc34)C(C(=O)OC)(c3cc4c(cc3OC)N(C)C3C(O)(C(=O)OC)C(OC(C)=O)C5(CC)C=CCN6CCC43C65)C2)C1 (configuration not stated)
T/C (dose: 0.06 mg/kg/injection, schedule: Q01DX009 (ip), vehicle: saline): 111 % of control
T/C (dose: 0.06 mg/kg/injection, schedule: Q01DX009 (ip), vehicle: suspension in saline): 116 % of control
T/C (dose: 0.12 mg/kg/injection, schedule: Q01DX009 (ip), vehicle: suspension in saline): 114 % of control
T/C (dose: 0.13 mg/kg/injection, schedule: Q01DX009 (ip), vehicle: saline): 110 % of control
T/C (dose: 0.5 mg/kg/injection, schedule: Q01DX009 (ip), vehicle: saline): 175 % of control
T/C (dose: 1.0 mg/kg/injection, schedule: Q01DX009 (ip), vehicle: saline): 208 % of control
T/C (dose: 2.0 mg/kg/injection, schedule: Q01DX009 (ip), vehicle: saline): 248 % of control
T/C (dose: 2.0 mg/kg/injection, schedule: Q01DX009 (ip), vehicle: suspension in saline): 226 % of control

CC[C@]1(O)C[C@H](OC2CC(N(C)C)C(OC3CC(O)C(O)C(C)O3)C(C)O2)c2c(cc3c(c2O)C(=O)c2c(O)ccc(O)c2C3=O)[C@H]1C(=O)OC (some centres not stated)
T/C (dose: 0.12 mg/kg/injection, schedule: Q01DX009 (ip), vehicle: Klucel (hydroxypropylcellulose) (HPC)): 106 % of control
T/C (dose: 0.25 mg/kg/injection, schedule: Q01DX009 (ip), vehicle: Klucel (hydroxypropylcellulose) (HPC)): 115 % of control
T/C (dose: 1.0 mg/kg/injection, schedule: Q01DX009 (ip), vehicle: Klucel (hydroxypropylcellulose) (HPC)): 177 % of control
T/C (dose: 2.0 mg/kg/injection, schedule: Q01DX009 (ip), vehicle: Klucel (hydroxypropylcellulose) (HPC)): 191 % of control

O=[N+]([O-])c1ccc2c3c(ccc([N+](=O)[O-])c13)CC2
T/C (dose: 25.0 mg/kg/injection, schedule: Q01DX009 (ip), vehicle: Klucel (hydroxypropylcellulose) (HPC)): 89 % of control
T/C [1]: 89 % of control
T/C [2]: 91 % of control and 95 % of control

O=C(O)/C=C/C(=O)Nc1ccc(Cl)c(Cl)c1
T/C (dose: 6.25 mg/kg/injection, schedule: Q01DX009 (ip), vehicle: Klucel (hydroxypropylcellulose) (HPC)): 112 % of control
T/C (dose: 400.0 mg/kg/injection, schedule: Q01DX009 (ip), vehicle: Klucel (hydroxypropylcellulose) (HPC)): 110 % of control

CCCCCC1c2cc(O)ccc2OC1N1CCOCC1 (configuration not stated)
T/C (dose: 6.0 mg/kg/injection, schedule: Q01DX009 (ip), vehicle: saline with Tween-80): 90 % of control
T/C (dose: 12.0 mg/kg/injection, schedule: Q01DX009 (ip), vehicle: saline with Tween-80): 103 % of control
T/C (dose: 12.5 mg/kg/injection, schedule: Q01DX009 (ip), vehicle: saline with Tween-80): 106 % of control
T/C (dose: 25.0 mg/kg/injection, schedule: Q01DX009 (ip), vehicle: saline with Tween-80): 96 % of control and 107 % of control
T/C (dose: 50.0 mg/kg/injection, schedule: Q01DX009 (ip), vehicle: saline with Tween-80): 98 % of control and 102 % of control
T/C (dose: 100.0 mg/kg/injection, schedule: Q01DX009 (ip), vehicle: saline with Tween-80): 94 % of control and 106 % of control
T/C (dose: 200.0 mg/kg/injection, schedule: Q01DX009 (ip), vehicle: saline with Tween-80): 96 % of control and 97 % of control

CCC(C)Nc1ccc(N)cc1 (configuration not stated)
T/C (dose: 0.09 mg/kg/injection, schedule: Q01DX009 (ip), vehicle: saline + Tween-80 + alcohol): 98 % of control
T/C (dose: 0.18 mg/kg/injection, schedule: Q01DX009 (ip), vehicle: saline + Tween-80 + alcohol): 94 % of control
T/C (dose: 0.37 mg/kg/injection, schedule: Q01DX009 (ip), vehicle: saline + Tween-80 + alcohol): 109 % of control
T/C (dose: 0.75 mg/kg/injection, schedule: Q01DX009 (ip), vehicle: saline + Tween-80 + alcohol): 109 % of control
T/C (dose: 1.5 mg/kg/injection, schedule: Q01DX009 (ip), vehicle: Klucel (hydroxypropylcellulose) (HPC)): 91 % of control
T/C (dose: 1.5 mg/kg/injection, schedule: Q01DX009 (ip), vehicle: saline + Tween-80 + alcohol): 113 % of control
T/C (dose: 3.0 mg/kg/injection, schedule: Q01DX009 (ip), vehicle: Klucel (hydroxypropylcellulose) (HPC)): 111 % of control
T/C (dose: 3.0 mg/kg/injection, schedule: Q01DX009 (ip), vehicle: saline + Tween-80 + alcohol): 97 % of control
T/C (dose: 6.0 mg/kg/injection, schedule: Q01DX009 (ip), vehicle: Klucel (hydroxypropylcellulose) (HPC)): 96 % of control
T/C (dose: 12.0 mg/kg/injection, schedule: Q01DX009 (ip), vehicle: Klucel (hydroxypropylcellulose) (HPC)): 89 % of control

COc1cc2c(c(OC)c1OC)-c1cccc(=O)cc1C(NC(C)=O)CC2 (configuration not stated)
T/C (dose: 1.25 mg/kg/injection, schedule: Q01DX009 (ip), vehicle: water): 98 % of control
T/C (dose: 2.5 mg/kg/injection, schedule: Q01DX009 (ip), vehicle: saline): 97 % of control
T/C (dose: 2.5 mg/kg/injection, schedule: Q01DX009 (ip), vehicle: water): 102 % of control
T/C (dose: 5.0 mg/kg/injection, schedule: Q01DX009 (ip), vehicle: saline): 100 % of control
T/C (dose: 5.0 mg/kg/injection, schedule: Q01DX009 (ip), vehicle: water): 97 % of control
T/C (dose: 10.0 mg/kg/injection, schedule: Q01DX009 (ip), vehicle: saline): 116 % of control
T/C (dose: 10.0 mg/kg/injection, schedule: Q01DX009 (ip), vehicle: water): 96 % of control
T/C (dose: 20.0 mg/kg/injection, schedule: Q01DX009 (ip), vehicle: saline): 99 % of control
T/C (dose: 20.0 mg/kg/injection, schedule: Q01DX009 (ip), vehicle: water): 103 % of control
T/C (dose: 40.0 mg/kg/injection, schedule: Q01DX009 (ip), vehicle: saline): 103 % of control

COc1cccc2c1C(=O)c1c(O)c3c(c(O)c1C2=O)C[C@](O)(C(=O)CO)CC3OC1CC(N)C(OC2CCCCO2)C(C)O1 (some centres not stated)
T/C (dose: 1.5 mg/kg/injection, schedule: Q01DX009 (ip), vehicle: water): 382 % of control
T/C (dose: 1.56 mg/kg/injection, schedule: Q01DX001 (ip), vehicle: water): 172 % of control
T/C (dose: 3.12 mg/kg/injection, schedule: Q01DX001 (ip), vehicle: water): 206 % of control and 218 % of control
T/C (dose: 6.25 mg/kg/injection, schedule: Q01DX001 (ip), vehicle: water): 222 % of control and 317 % of control
T/C (dose: 12.5 mg/kg/injection, schedule: Q01DX001 (ip), vehicle: water): 229 % of control and 264 % of control

CC(C)(C)Oc1ccc(CC(NC(=O)OCC2c3ccccc3-c3ccccc32)C(=O)O)cc1 (configuration not stated)
T/C [1]: 107 % of control
T/C [2]: 108 % of control
T/C (dose: 200.0 mg/kg/injection, schedule: Q01DX009 (ip), vehicle: Klucel (hydroxypropylcellulose) (HPC)): 105 % of control
